Measurements taken from patent US9187439B2, “Tricyclic compounds useful as neurogenic and neuroprotective agents” (INCEPTION 1, INC., priority 2011, dated 2015).

What was measured:
[1] = tested on: mitochondria isolated from HeLa cells; experiment: HeLa cytochrome C release assay; type: biochemical; settings: at a concentration of 10 μM; release initiated with t-Bid 25 nM
Procedure: HeLa Cytochrome C Release Assay
Inhibition of the pro-apoptotic protein cytochorome C by a compound of Formula I (and/or a compound of any of the other formulae described herein), was evaluated in mitochondria isolated from HeLa cells. In the assay, 10-20 million HeLa cells were resuspended in assay buffer (70 mM sucrose; 230 mM mannitol; 1 mM EDTA; 5 mM HEPES, pH 7 with KOH) containing protease inhibitor cocktail (Sigma P-8340) and treated with 1.5 μg/million cells digitonin for 5 minutes at 4° C. Cells were pelleted by centrifugation and washed twice with assay buffer containing 0.5% BSA. Cells were resuspended in assay buffer and homogenized with a Dounce homogenizer (60 strokes) on ice. Intact cells were removed by centrifugation (1000×g, 10 min) and the supernatant centrifuged (8,500×g, 10 min) The mitochondrial pellet was resuspended in assay buffer to achieve a protein concentration of 0.333 μg/ml. 15 μl of Test compound (at 5× dilution) was combined with 45 μl mitochondria and incubated for 15 min at RT. Cytochrome C release was initiated with 15 μl t-Bid (final conc=25 nM) and the reaction continued for 30 min at RT. Samples were then centrifuged (12,000×g, 10 min) and 50 μl of the supernatant analyzed for cytochrome C content by ELISA (R & D Systems, #DCTCO).

[2] = target: T1, Recombinant GST-Bax protein (Homo sapiens, UniProt Q07812); experiment: BAX liposome assay; type: biochemical
T1 construct: purchased Abnova
Procedure: Inhibition of BAX oligomerization and pore formation was evaluated using a liposome assay preparation. To do so, 30% 1,2-dioleoyl-sn-glycero-3-phosphate and 70% 1,2-dioleoyl-sn-glycero-3-phosphocholine (Avanti Polar Lipids, Alabaster, Ala.) were mixed in chloroform followed by evaporation at 37° C. under nitrogen (Saito et al., 2000). Liposomes were then rehydrated with agitation in buffer containing 50 mM 10 kD-dextran carboxyfluorescein (dextran-CF, Invitrogen, Carlsbad, Calif.), 100 mM KCl, 1 mM EDTA and 20 mM HEPES at pH 7.4. Liposomes were then sized using 5 freeze-thaw cycles, 5 minutes in a sonication bath, followed by 3 passages through a 5 μm syringe filter and 5 passages through a 0.2 μm syringe filter. Free dextran-CF was removed by Sepharose S-300 size exclusion chromatography (GE Healthcare, Piscataway, N.J.). Recombinant GST-Bax protein (Abnova, Taipei, Taiwan) was activated by incubating for 30 minutes in 2% octyglucoside in the presence or absence of compound X in a 96-well plate. Liposomes were then added to the activated GST-Bax (final concentration 10 nM). Carboxyfluorescein release from liposomes was measured by excitation with 497 nm light and the […] monitored for 15 minutes.

[3] = tested on: SH-SY5Y human neuroblastoma cells; experiment: In vitro human SHSY5Y survival assay (neuronal survival assay); type: cell-based; settings: n=2
Procedure: In Vitro Human SHSY5Y Survival Assay
In order to determine if compounds effect cell survival, we tested them in an in vitro assay using the human neuroblastoma cell line SH-SY5Y. SH-SY5Y human neuroblastoma cells treated with retinoic acid for 5 days produce a homogeneous population of neuronal differentiated cells that are strictly dependant on BDNF for their survival. SH-SY5Y cells are plated on 96-well collagen coated plates and incubated for 24 hours. Retinoic acid is then added and incubated on the cells for 5 days. After 5 days, media with retinoic acid is removed and replaced with serum free media+/−compound. Each plate includes basal media (negative) and BDNF (positive) controls. The cells are then fixed with paraformaldehyde (3.7%) and stained with the nuclear marker Hoechst and the neuronal marker beta-Tubulin III. The plate is imaged using the In Cell Analyzer 2000™. Each well is imaged in 9 different spots throughout the well. The images are analyzed with a custom-designed algorithm using the In Cell Developer™ software. Data is averaged per compound concentration and calculated as a background subtracted percent of positive control.

T1 sequence (Q07812 whole entry): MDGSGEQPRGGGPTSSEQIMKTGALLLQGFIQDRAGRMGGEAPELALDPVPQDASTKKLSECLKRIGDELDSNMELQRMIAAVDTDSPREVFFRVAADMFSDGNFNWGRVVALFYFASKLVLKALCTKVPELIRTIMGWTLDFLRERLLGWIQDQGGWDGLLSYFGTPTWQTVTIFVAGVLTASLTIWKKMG

SMILES | inhibition of cytochrome C release [1] | IC50 [2] | EC50 [3]
OC(CN1CC2(CNC2)C1)CN1c2ccccc2Sc2ccc(C(F)(F)F)cc21 (racemic) [Example 3, (±)-1-(2,6-diazaspiro[3.3]heptan-2-yl)-3-(2-(trifluoromethyl)-10H-phenothiazin-10-yl)propan-2-ol] | 93% |  | 
OC(CN1CC2(COC2)C1)CN1c2ccccc2Sc2ccc(C(F)(F)F)cc21 (racemic) [Example 1, (±)-1-(2-oxa-6-azaspiro[3.3]heptan-6-yl)-3-(2-(trifluoromethyl)-10H-phenothiazin-10-yl)propan-2-ol] |  | 24.6 µM | 509 nM
FC(F)(F)c1ccc2c(c1)N(CCCN1CC3(CNC3)C1)c1ccccc1S2 [Example 4, 10-(3-(2,6-diazaspiro[3.3]heptan-2-yl)propyl)-2-(trifluoromethyl)-10H-phenothiazine] | 27% |  | 
